Test results reported in the NIST ThermoML archive (doi:10.1021/je060271a).

Conditions: 283.15 K, Liquid, Vibrating tube method

CCCCCC(=O)OCC(COC(=O)CCCCC)(COC(=O)CCCCC)COC(=O)CCCCC [pentaerythritol tetrahexanoate]
Conditions	mass density [kg/m3]
25591 kPa	1018.3
25610 kPa	1018.3
25634 kPa	1018.4
25653 kPa	1018.5
25672 kPa	1018.4
25696 kPa	1018.4
25716 kPa	1018.4
25738 kPa	1018.5
25757 kPa	1018.5
25774 kPa	1018.5
25793 kPa	1018.4
25815 kPa	1018.4
25832 kPa	1018.4
25851 kPa	1018.4
25872 kPa	1018.5
25890 kPa	1018.4
25912 kPa	1018.6
25930 kPa	1018.7
25948 kPa	1018.5
25966 kPa	1018.5
25986 kPa	1018.5
26002 kPa	1018.5
26022 kPa	1018.6
26039 kPa	1018.6
26056 kPa	1018.6
26075 kPa	1018.7
26091 kPa	1018.6
26108 kPa	1018.7
26127 kPa	1018.6
26143 kPa	1018.8
26160 kPa	1018.6
26180 kPa	1018.7
26196 kPa	1018.6
26213 kPa	1018.6
26233 kPa	1018.7
26249 kPa	1018.7
26266 kPa	1018.8
26287 kPa	1018.8
26303 kPa	1018.7
26320 kPa	1018.8
26337 kPa	1018.8
26357 kPa	1018.7
26374 kPa	1018.7
26394 kPa	1018.6
26410 kPa	1018.8
26428 kPa	1018.7
26448 kPa	1018.9
26465 kPa	1018.8
26483 kPa	1018.7
26500 kPa	1018.8
26521 kPa	1018.9
26538 kPa	1018.8
26559 kPa	1018.9
26576 kPa	1018.9
26593 kPa	1018.8
26609 kPa	1018.8
26629 kPa	1018.9
26645 kPa	1018.9
26661 kPa	1019
26680 kPa	1018.9
26696 kPa	1018.9
26713 kPa	1018.9
26730 kPa	1018.9
26746 kPa	1018.9
26766 kPa	1019
26782 kPa	1019
26798 kPa	1019
26818 kPa	1019
26834 kPa	1019
26850 kPa	1018.9
26870 kPa	1019
26886 kPa	1019
26902 kPa	1019
26957 kPa	1019.1
26974 kPa	1019
26993 kPa	1019.2
27010 kPa	1019.1
27026 kPa	1019
27042 kPa	1019.2
27063 kPa	1019.1
27080 kPa	1019.2
27097 kPa	1019.1
27117 kPa	1019
27134 kPa	1019.1
27155 kPa	1019.2
27172 kPa	1019.2
27188 kPa	1019.2
27204 kPa	1019.3
27222 kPa	1019.2
27238 kPa	1019.2
27253 kPa	1019.2
27272 kPa	1019.2
27288 kPa	1019.3
27306 kPa	1019.2
27322 kPa	1019.4
27338 kPa	1019.3
27354 kPa	1019.3
27373 kPa	1019.2
27388 kPa	1019.2
27404 kPa	1019.3
27423 kPa	1019.3
27439 kPa	1019.3
27458 kPa	1019.4
27474 kPa	1019.3
27489 kPa	1019.4
27505 kPa	1019.3
27524 kPa	1019.4
27540 kPa	1019.3
27560 kPa	1019.3
27576 kPa	1019.3
27592 kPa	1019.4
27611 kPa	1019.4
27627 kPa	1019.3
27644 kPa	1019.4
27660 kPa	1019.5
27679 kPa	1019.5
27696 kPa	1019.4
27712 kPa	1019.5
27732 kPa	1019.4
27748 kPa	1019.5
27764 kPa	1019.6
27784 kPa	1019.5
27800 kPa	1019.4
27817 kPa	1019.5
27837 kPa	1019.5
27853 kPa	1019.4
27869 kPa	1019.5
27889 kPa	1019.6
27906 kPa	1019.6
27922 kPa	1019.7
27942 kPa	1019.6
27959 kPa	1019.6
27976 kPa	1019.5
27996 kPa	1019.7
28012 kPa	1019.5
28029 kPa	1019.6
28046 kPa	1019.7
28066 kPa	1019.7
28083 kPa	1019.7
28100 kPa	1019.7
28120 kPa	1019.6
28136 kPa	1019.6
28153 kPa	1019.7
28170 kPa	1019.8
28190 kPa	1019.8
28207 kPa	1019.9
28225 kPa	1019.7
28245 kPa	1019.7
28262 kPa	1019.7
28280 kPa	1019.8
28297 kPa	1019.7
28314 kPa	1019.7
28334 kPa	1019.8
28351 kPa	1019.7
28371 kPa	1019.8
28388 kPa	1019.7
28405 kPa	1019.9
28422 kPa	1019.7
28443 kPa	1019.8
28460 kPa	1019.8
28478 kPa	1019.8
28500 kPa	1019.8
28517 kPa	1019.8
28535 kPa	1019.9
28552 kPa	1019.9
28570 kPa	1019.9
28591 kPa	1019.9
28608 kPa	1020
28629 kPa	1019.9
28646 kPa	1019.9
28664 kPa	1019.9
28686 kPa	1019.9
28703 kPa	1020
28722 kPa	1019.9
28744 kPa	1019.9
28763 kPa	1019.9
28781 kPa	1019.9
28800 kPa	1020
28815 kPa	1020.1
28830 kPa	1020.1
28848 kPa	1020
28863 kPa	1020
28878 kPa	1020.2
28896 kPa	1020
28911 kPa	1020
28926 kPa	1020
28944 kPa	1020.1
28958 kPa	1020.1
28973 kPa	1020
28990 kPa	1020.2
29004 kPa	1020.2
29018 kPa	1020.1
29035 kPa	1020
29050 kPa	1020.2
29064 kPa	1020.1
29081 kPa	1020.1
29096 kPa	1020.3
29110 kPa	1020.2
29127 kPa	1020.2
29142 kPa	1020.1
29156 kPa	1020.1
29171 kPa	1020.1
29188 kPa	1020.2
29202 kPa	1020.1
29219 kPa	1020.3
29234 kPa	1020.3
29248 kPa	1020.3
29263 kPa	1020.3
29280 kPa	1020.2
29295 kPa	1020.3
29313 kPa	1020.3
29327 kPa	1020.3
29342 kPa	1020.3
29357 kPa	1020.3
29375 kPa	1020.3
29389 kPa	1020.4
29407 kPa	1020.3
29422 kPa	1020.4
29436 kPa	1020.2
29451 kPa	1020.4
29469 kPa	1020.3
29484 kPa	1020.4
29499 kPa	1020.3
29516 kPa	1020.3
29531 kPa	1020.5
29547 kPa	1020.3
29564 kPa	1020.4
29579 kPa	1020.4
29594 kPa	1020.4
29609 kPa	1020.4
29627 kPa	1020.4
29642 kPa	1020.5
29660 kPa	1020.5
29675 kPa	1020.5
29690 kPa	1020.6
29708 kPa	1020.6
29723 kPa	1020.4
29738 kPa	1020.6
29754 kPa	1020.5
29770 kPa	1020.5
29788 kPa	1020.5
29803 kPa	1020.5
29821 kPa	1020.5
29837 kPa	1020.6
29852 kPa	1020.6
29867 kPa	1020.6
29886 kPa	1020.6
29901 kPa	1020.5
29916 kPa	1020.5
29935 kPa	1020.6
29950 kPa	1020.6
29967 kPa	1020.7
29982 kPa	1020.5
29998 kPa	1020.6
30016 kPa	1020.5
30032 kPa	1020.6
30048 kPa	1020.6
30066 kPa	1020.6
30082 kPa	1020.6
30097 kPa	1020.6
30116 kPa	1020.6
30131 kPa	1020.7
30147 kPa	1020.7
30163 kPa	1020.7
30182 kPa	1020.7
30198 kPa	1020.8
30214 kPa	1020.7
30232 kPa	1020.7
30248 kPa	1020.8
30264 kPa	1020.7
30280 kPa	1020.7
30298 kPa	1020.7
30314 kPa	1020.9
30330 kPa	1020.9
30349 kPa	1020.8
30364 kPa	1020.8
30384 kPa	1020.9
30400 kPa	1020.8
30416 kPa	1020.9
30431 kPa	1020.8
30451 kPa	1020.8
30466 kPa	1020.9
30482 kPa	1020.9
30502 kPa	1020.9
30517 kPa	1020.9
30536 kPa	1020.9
30552 kPa	1020.9
30568 kPa	1020.9
30587 kPa	1021
